Assay results taken from ChEMBL document CHEMBL3046957, “Synthesis of new oxadiazole derivatives as anti-inflammatory, analgesic, and antimicrobial agents” (2013).

How the values were obtained:
Format in all cases: functional
Aspergillus niger [1] = experiment: Antifungal activity against Aspergillus niger assessed as growth inhibition at 100 ug/mL after 24 hr by cup-plate method; conditions: read-out: DIZ
Aspergillus niger [2] = experiment: Antifungal activity against Aspergillus niger assessed as growth inhibition at 50 ug/mL after 24 hr by cup-plate method; conditions: read-out: DIZ
Candida albicans [3] = experiment: Antifungal activity against Candida albicans assessed as growth inhibition at 100 ug/mL after 24 hr by cup-plate method; conditions: read-out: DIZ
Candida albicans [4] = experiment: Antifungal activity against Candida albicans assessed as growth inhibition at 50 ug/mL after 24 hr by cup-plate method; conditions: read-out: DIZ
Pseudomonas aeruginosa [5] = experiment: Antibacterial activity against Pseudomonas aeruginosa assessed as growth inhibition at 100 ug/mL after 24 to 48 hr by cup-plate method; conditions: read-out: DIZ
Pseudomonas aeruginosa [6] = experiment: Antibacterial activity against Pseudomonas aeruginosa assessed as growth inhibition at 50 ug/mL after 24 to 48 hr by cup-plate method; conditions: read-out: DIZ
Escherichia coli [7] = experiment: Antibacterial activity against Escherichia coli assessed as growth inhibition at 100 ug/mL after 24 to 48 hr by cup-plate method; conditions: read-out: DIZ
Bacillus subtilis [8] = experiment: Antibacterial activity against Bacillus subtilis assessed as growth inhibition at 100 ug/mL after 24 to 48 hr by cup-plate method; conditions: read-out: DIZ
Escherichia coli [9] = experiment: Antibacterial activity against Escherichia coli assessed as growth inhibition at 50 ug/mL after 24 to 48 hr by cup-plate method; conditions: read-out: DIZ
Bacillus subtilis [10] = experiment: Antibacterial activity against Bacillus subtilis assessed as growth inhibition at 50 ug/mL after 24 to 48 hr by cup-plate method; conditions: read-out: DIZ
Staphylococcus aureus [11] = experiment: Antibacterial activity against Staphylococcus aureus assessed as growth inhibition at 100 ug/mL after 24 to 48 hr by cup-plate method; conditions: read-out: DIZ
Staphylococcus aureus [12] = experiment: Antibacterial activity against Staphylococcus aureus assessed as growth inhibition at 50 ug/mL after 24 to 48 hr by cup-plate method; conditions: read-out: DIZ
Mus musculus [13] = experiment: Analgesic activity in Swiss albino Mus musculus (mouse) assessed as latency time of heat-induced paw licking/jumping behaviour at 10 mg/kg after 4 hr by Eddy's hot plate method (reference value: 4.57 +/- 0.11 secs)
Mus musculus [14] = experiment: Analgesic activity in Swiss albino Mus musculus (mouse) assessed as latency time of heat-induced paw licking/jumping behaviour at 10 mg/kg after 2 hr by Eddy's hot plate method (reference value: 4.86 +/- 0.18 secs)
Mus musculus [15] = experiment: Analgesic activity in Swiss albino Mus musculus (mouse) assessed as latency time of heat-induced paw licking/jumping behaviour at 10 mg/kg after 1 hr by Eddy's hot plate method (reference value: 4.74 +/- 0.21 secs)
Mus musculus [16] = experiment: Analgesic activity in Swiss albino Mus musculus (mouse) assessed as latency time of heat-induced paw licking/jumping behaviour at 10 mg/kg after 0.5 hr by Eddy's hot plate method (reference value: 4.17 +/- 0.04 secs)
Rattus norvegicus [17] = experiment: Anti-inflammatory activity in Wistar albino Rattus norvegicus (rat) assessed as inhibition of carrageenan-induced paw edema at 10 mg/kg, po administered 30 min prior to carrageenan challenge measured after 3 hr by plethysmometric analysis relative to untreated control
Rattus norvegicus [18] = experiment: Anti-inflammatory activity in Wistar albino Rattus norvegicus (rat) assessed as inhibition of carrageenan-induced paw edema at 10 mg/kg, po administered 30 min prior to carrageenan challenge measured after 2 hr by plethysmometric analysis relative to untreated control
Rattus norvegicus [19] = experiment: Anti-inflammatory activity in Wistar albino Rattus norvegicus (rat) assessed as inhibition of carrageenan-induced paw edema at 10 mg/kg, po administered 30 min prior to carrageenan challenge measured after 1.5 hr by plethysmometric analysis relative to untreated control
Rattus norvegicus [20] = experiment: Anti-inflammatory activity in Wistar albino Rattus norvegicus (rat) assessed as inhibition of carrageenan-induced paw edema at 10 mg/kg, po administered 30 min prior to carrageenan challenge measured after 1 hr by plethysmometric analysis relative to untreated control
Rattus norvegicus [21] = experiment: Anti-inflammatory activity in Wistar albino Rattus norvegicus (rat) assessed as inhibition of carrageenan-induced paw edema at 10 mg/kg, po administered 30 min prior to carrageenan challenge measured after 0.5 hr by plethysmometric analysis relative to untreated control

| SMILES | zone of inhibition at 100 µg/mL (Aspergillus niger [1]) [mm] | zone of inhibition at 50 µg/mL (Aspergillus niger [2]) [mm] | zone of inhibition at 100 µg/mL (Candida albicans [3]) [mm] | zone of inhibition at 50 µg/mL (Candida albicans [4]) [mm] | zone of inhibition at 100 µg/mL (Pseudomonas aeruginosa [5]) [mm] | zone of inhibition at 50 µg/mL (Pseudomonas aeruginosa [6]) [mm] | zone of inhibition at 100 µg/mL (Escherichia coli [7]) [mm] | zone of inhibition at 100 µg/mL (Bacillus subtilis [8]) [mm] | zone of inhibition at 50 µg/mL (Escherichia coli [9]) [mm] | zone of inhibition at 50 µg/mL (Bacillus subtilis [10]) [mm] | zone of inhibition at 100 µg/mL (Staphylococcus aureus [11]) [mm] | zone of inhibition at 50 µg/mL (Staphylococcus aureus [12]) [mm] | Time (Mus musculus [13]) [s] | Time (Mus musculus [14]) [s] | Time (Mus musculus [15]) [s] | Time (Mus musculus [16]) [s] | inhibition in vivo at 10 mg/kg (Rattus norvegicus [17]) [%] | inhibition in vivo at 10 mg/kg (Rattus norvegicus [18]) [%] | inhibition in vivo at 10 mg/kg (Rattus norvegicus [19]) [%] | inhibition in vivo at 10 mg/kg (Rattus norvegicus [20]) [%] | further results |
| --- | --- | --- | --- | --- | --- | --- | --- | --- | --- | --- | --- | --- | --- | --- | --- | --- | --- | --- | --- | --- | --- |
| COc1ccc(F)cc1-c1cccc(-c2n[nH]c(=O)o2)c1 | 28 | 15 | 21 | 12 | 13 | 10 | 14 | 12 | 8 | 8 | 13 | 9 | 6.35 | 7.41 | 4.74 | 4.22 | 71 | 56 | 49 | 41 | inhibition in vivo at 10 mg/kg (Rattus norvegicus [21]): 25% |
| COC(=O)CCCn1nc(-c2cccc(-c3cc(F)ccc3OC)c2)oc1=O | 16 | 11 | 17 | 11 | 14 | 11 | 18 | 13 | 10 | 10 | 18 | 11 | 7.28 | 7.81 | 5.84 | 5.51 | 87 | 74 | 61 | 45 | inhibition in vivo at 10 mg/kg (Rattus norvegicus [21]): 31% |
| COc1ccc(F)cc1-c1cccc(-c2nn(CCCCF)c(=O)o2)c1 | 10 | 9 | 11 | 8 | 21 | 18 | 20 | 24 | 17 | 20 | 25 | 19 | 7.04 | 7.88 | 5.24 | 5.55 | 95 | 83 | 67 | 51 | inhibition in vivo at 10 mg/kg (Rattus norvegicus [21]): 36% |
| COc1ccc(F)cc1-c1cccc(-c2nn(CCCC#N)c(=O)o2)c1 | 14 | 12 | 16 | 10 | 14 | 11 | 16 | 14 | 11 | 13 | 14 | 10 | 7.08 | 7.11 | 5.64 | 5.71 | 85 | 71 | 59 | 44 | inhibition in vivo at 10 mg/kg (Rattus norvegicus [21]): 29% |
